Reference: ChEMBL document CHEMBL3244210, “Experimental antiulcer drugs. 1. Indole-1-alkanamides and pyrrole-1-alkanamides” (J Med Chem, 1977)
Calls of active or inactive are those of the source. The calls are words filed in the database; no cut-off is given here.

Tests used:
[1] = system: Rattus norvegicus; test: Antiulcer activity in po dosed albino rat pyloric ligation model assessed as inhibition of gastric secretion administered as single dose 1 to 24 hrs prior to ligation; type: functional, organism-based; conditions: Stomach
[2] = system: Rattus norvegicus; test: Antiulcer activity in sc dosed albino rat pyloric ligation model assessed as inhibition of gastric secretion administered as single dose 1 to 24 hrs prior to ligation; type: functional, organism-based; conditions: Stomach
[3] = Drug excretion in rat urine administered as single dose 1 to 24 hrs prior to ligation; type: ADME; conditions: in vivo
[4] = Toxicity in histamine-induced guinea pig assessed as change in rate of beating in right atrium at 10 ' -5 to 5 x 10' -5 M after 5 mins; type: tissue-based, Cavia porcellus, Cardiac atrium
[5] = system: Mus musculus; test: Anticholinergic activity in mouse assessed as mydriasis at 100 mg/kg, po measured after 1 to 24 hrs post dose; type: ADME, organism-based; set-up: dose 100 mg/kg, route oral; conditions: in vivo
[6] = organism: Homo sapiens; test: Antagonist activity at histamine receptor (unknown origin) assessed as shift in histamine-induced response at 5 x 10 '-5 M relative to control
[7] = organism: Homo sapiens; test: Antagonist activity at histamine receptor (unknown origin) assessed as shift in histamine-induced response at 10 '-5 M relative to control
[8] = system: Rattus norvegicus; test: Antiulcer activity in albino rat pyloric ligation model assessed as elevation of gastric pH at 100 mg/kg, po administered as single dose 24 hrs prior ligation (Rvb =1.1 no_unit); type: functional, Stomach
[9] = system: Rattus norvegicus; test: Antiulcer activity in albino rat pyloric ligation model assessed as inhibition of gastric volume at 100 mg/kg, po administered as single dose 24 hrs prior ligation relative to control; type: functional; conditions: Stomach
[10] = system: Rattus norvegicus; test: Antiulcer activity in albino rat pyloric ligation model assessed as inhibition of total acid output at 100 mg/kg, po administered as single dose 1 hr prior ligation relative to control; type: functional
[11] = system: Rattus norvegicus; test: Antiulcer activity in albino rat pyloric ligation model assessed as inhibition of total acid output at 200 mg/kg, po administered as single dose 1 hr prior ligation relative to control; type: functional
[12] = system: Rattus norvegicus; test: Antiulcer activity in albino rat pyloric ligation model assessed as inhibition of total acid output at 100 mg/kg, po administered as single dose during ligation relative to control; type: functional
[13] = system: Rattus norvegicus; test: Antiulcer activity in albino rat pyloric ligation model assessed as inhibition of gastric volume at 50 mg/kg, po administered as single dose 1 hr prior ligation relative to control; type: functional; conditions: Stomach
[14] = system: Canis familiaris; test: Antisecretory activity in beagle dog with chronic gastric fistula assessed as inhibition of histamine-induced gastric secretion at 50 mg/kg, po measured every 15 mins post histamine treatment; type: functional, organism-based; set-up: dose 50 mg/kg; conditions: Canis lupus familiaris, Stomach
[15] = system: Rattus norvegicus; test: Antiulcer activity in albino rat pyloric ligation model assessed as elevation of gastric pH at 100 mg/kg, po administered as single dose 1 hr prior ligation (Rvb =1.1 no_unit); type: functional, Stomach
[16] = system: Rattus norvegicus; test: Antiulcer activity in albino rat pyloric ligation model assessed as inhibition of total acid output at 25 mg/kg, po administered as single dose 1 hr prior ligation relative to control; type: functional
[17] = system: Rattus norvegicus; test: Antiulcer activity in albino rat pyloric ligation model assessed as inhibition of total acid output at 100 mg/kg, po administered as single dose 24 hrs prior ligation relative to control; type: functional
[18] = system: Canis familiaris; test: Toxicity in beagle dog at 50 mg/kg, po; type: organism-based, Canis lupus familiaris; set-up: dose 50 mg/kg, route oral; conditions: in vivo
[19] = system: Rattus norvegicus; test: Antiulcer activity in albino rat pyloric ligation model assessed as elevation of gastric pH at 100 mg/kg, po administered as single dose during prior ligation (Rvb =1.1 no_unit); type: functional, Stomach
[20] = system: Rattus norvegicus; test: Antiulcer activity in albino rat pyloric ligation model assessed as elevation of gastric pH at 25 mg/kg, po administered as single dose 1 hr prior ligation (Rvb =1.1 no_unit); type: functional, Stomach
[21] = system: Rattus norvegicus; test: Antiulcer activity in albino rat pyloric ligation model assessed as inhibition of gastric volume at 25 mg/kg, po administered as single dose 1 hr prior ligation relative to control; type: functional; conditions: Stomach
[22] = system: Rattus norvegicus; test: Antiulcer activity in albino rat pyloric ligation model assessed as inhibition of gastric volume at 100 mg/kg, po administered as single dose during ligation relative to control; type: functional; conditions: Stomach
[23] = system: Rattus norvegicus; test: Antiulcer activity in albino rat pyloric ligation model assessed as elevation of gastric pH at 200 mg/kg, po administered as single dose 1 hr prior ligation (Rvb =1.1 no_unit); type: functional, Stomach
[24] = system: Rattus norvegicus; test: Antiulcer activity in albino rat pyloric ligation model assessed as inhibition of gastric volume at 100 mg/kg, po administered as single dose 1 hr prior ligation relative to control; type: functional; conditions: Stomach
[25] = system: Rattus norvegicus; test: Antiulcer activity in albino rat pyloric ligation model assessed as inhibition of gastric volume at 200 mg/kg, po administered as single dose 1 hr prior ligation relative to control; type: functional; conditions: Stomach
[26] = system: Rattus norvegicus; test: Antiulcer activity in albino rat pyloric ligation model assessed as elevation of gastric pH at 50 mg/kg, po administered as single dose 1 hr prior ligation (Rvb =1.1 no_unit); type: functional, Stomach
[27] = system: Rattus norvegicus; test: Antiulcer activity in albino rat pyloric ligation model assessed as inhibition of total acid output at 50 mg/kg, po administered as single dose 1 hr prior ligation relative to control; type: functional
[28] = organism: Rattus norvegicus; test: animal or person; conditions: Stomach, po, read-out: INH
[29] = system: Rattus norvegicus; test: Antiulcer activity in albino rat pyloric ligation model assessed as elevation of gastric pH at 6.25 mg/kg, po administered as single dose during prior ligation (Rvb =1.1 no_unit); type: functional, Stomach
[30] = organism: Rattus norvegicus; test: animal or person; conditions: po, read-out: INH

## NC(=O)Cn1ccc2ccccc21
[1]
  inhibition: inactive
[2]
  inhibition: inactive

## Cc1[nH]c2ccccc2c1C
[1]
  inhibition: Active
[3]
  Drug excretion: metabolite_detected
[4]
  Activity: Non-toxic
[5]
  Activity: Non-toxic
[2]
  inhibition: Active

## Cc1cn(CC(N)=O)c2ccccc12
[1]
  inhibition: inactive
[2]
  inhibition: inactive

## Cc1c(C)c(C)n(CCC(N)=O)c1C
[1]
  inhibition: inactive
[2]
  inhibition: inactive

## Cc1c(CO)c2ccccc2n1CC(N)=O
[1]
  inhibition: inactive
[2]
  inhibition: Active

## Cc1ccc(C)n1CCC(N)=O
[1]
  inhibition: inactive
[2]
  inhibition: inactive

## Cc1c(C)n(CCCC(N)=O)c2ccccc12
[1]
  inhibition: Active
[2]
  inhibition: Active

## Cc1c(CO)c2ccccc2n1CCC(N)=O
[1]
  inhibition: inactive
[2]
  inhibition: Active

## c1ccc2[nH]ccc2c1
[1]
  inhibition: Active
[2]
  inhibition: Active

## Cc1cc2ccccc2n1C
[1]
  inhibition: inactive
[2]
  inhibition: inactive

## Cc1c(C)c(C)n(CC(N)=O)c1C
[1]
  inhibition: inactive
[4]
  Activity: Non-toxic
[5]
  Activity: Non-toxic
[2]
  inhibition: inactive

## CCc1c(C)c2ccccc2n1CC(N)=O
[1]
  inhibition: inactive
[2]
  inhibition: inactive

## CCc1c(C)c2ccccc2n1CCC(N)=O
[1]
  inhibition: inactive
[2]
  inhibition: inactive

## Cc1cc2ccccc2n1CCC(N)=O
[1]
  inhibition: inactive
[2]
  inhibition: inactive

## Cc1ccc(C)n1CC(N)=O
[1]
  inhibition: inactive
[2]
  inhibition: inactive

## CCc1c(C)n(CC(N)=O)c2ccccc12
[1]
  inhibition: inactive
[2]
  inhibition: inactive

## Cc1c(CO)c2ccccc2n1CCCC(N)=O
[1]
  inhibition: inactive
[2]
  inhibition: inactive

## Cc1c(CO)n(CCC(N)=O)c2ccccc12
[1]
  inhibition: inactive
[2]
  inhibition: inactive

## CCc1c(C)n(CCC(N)=O)c2ccccc12
[1]
  inhibition: inactive
[2]
  inhibition: inactive

## CNC(=S)NCCSCc1[nH]cnc1C
[6]
  fold change (FC): 38
[7]
  fold change (FC): 11

## Cc1cn(CCC(N)=O)c2ccccc12
[1]
  inhibition: inactive
[2]
  inhibition: inactive

## Cc1cc2ccccc2n1CC(N)=O
[1]
  inhibition: inactive
[2]
  inhibition: inactive

## Cc1c(C)n(CCC(N)=O)c2ccccc12
[1]
  inhibition: Active
[2]
  inhibition: Active

## Cc1c(C)n(CC(N)=O)c2ccccc12
[8]
  pH: 3.2
[1]
  inhibition: Active
[9]
  inhibition in vivo at 100 mg/kg: 44%
[10]
  inhibition in vivo at 100 mg/kg: 85%
[11]
  inhibition in vivo at 200 mg/kg: 88%
[12]
  inhibition in vivo at 100 mg/kg: 52%
[13]
  inhibition in vivo at 50 mg/kg: 39%
[4]
  Activity: Non-toxic
[14]
  Activity: Active
[15]
  pH: 6
[16]
  inhibition in vivo at 25 mg/kg: 47%
[17]
  inhibition in vivo at 100 mg/kg: 69%
[18]
  Activity: Toxic
[5]
  Activity: Non-toxic
[19]
  pH: 1.5
[2]
  inhibition: Active
[20]
  pH: 2.6
[21]
  inhibition in vivo at 25 mg/kg: 26%
[22]
  inhibition in vivo at 100 mg/kg: 32%
[23]
  pH: 6.7
[24]
  inhibition in vivo at 100 mg/kg: 27%
[25]
  inhibition in vivo at 200 mg/kg: 56%
[26]
  pH: 3
[27]
  inhibition in vivo at 50 mg/kg: 69%

## CN1[C@@H]2CC[C@H]1CC(OC(=O)[C@H](CO)c1ccccc1)C2 (stereo partly drawn) [ENDO-ATROPINE]
[28]
  inhibition in vivo at 6.25 mg/kg: 43%
[29]
  pH: 1.5
[30]
  inhibition in vivo at 6.25 mg/kg: 58%

## Cc1cc2ccccc2[nH]1
[1]
  inhibition: Active
[2]
  inhibition: Active

## CN/C(=N\CCSCc1nc[nH]c1C)NC#N [CIMETIDINE]
[10]
  inhibition in vivo at 100 mg/kg: 37%
[15]
  pH: 2.1
[24]
  inhibition in vivo at 100 mg/kg: 14%

## Cc1c[nH]c2ccccc12
[1]
  inhibition: Active
[2]
  inhibition: Active
